In patent publication US10646521B2, “Microbiota composition, as a marker of responsiveness to chemotherapy, and use of microbial modulators (pre-, pro- or synbiotics) for improving the efficacy of a cancer treatment” (INSTITUT GUSTAVE ROUSSY, priority 2013, dated 2020):
Values joined by “and” are separate entries in the source; they are usually repeats but may differ in a detail not shown here. Equal entries are not always repeated.

How the values were obtained:
gut microbiota [1] = conditions: Zhang Y et al., 2014; cited from earlier work
tumor = assay: Effects of ATB regimen on the efficacy of CTX (tumor outgrowth); assay type: in vivo, mice; conditions: ATB regimen 15 days prior to tumor inoculation
Experimental: Distinct ATB regimen (Zhang Y et al. Toxicology and Applied Pharmacology 277 (2014) 138-145) were administered for 15 days prior to tumor inoculation and CTX therapy every other 13 days. Tumor outgrowth was monitored with a caliper twice a week. […] Each experiment contains several groups of 5 mice. *Anova test: p<0.05.

commensal bacteria = assay type: in vivo, mice
Experimental: Mesenteric lymph nodes and spleens were aseptically removed, smashed in PBS and plated onto COS agar plates (BioMérieux), for aerobic and anaerobic growth. After 48 h of culture, single colonies were isolated and stocked in glycerol at −80° C.
Serial dilutions of feces from naïve mice or tumor bearers treated with NaCl or CTX, vancomycin or broad spectrum antibiotics (ATB) (ampicillin+streptomycin+colistin), were plated onto COS agar plates and after 48 h, single colonies were isolated and Gram staining was performed. The identification of specific bacteria was accomplished through the combination of morphological tests and the analysis through VITEK® automated system (BioMérieux, France) and verified in mass spectrometry (MALDI-TOF, see below) performed at Pasteur Institute, Paris, France.

splenic CD4+ T cells = conditions: mouse, in vivo
splenocytes = assay: TCR cross-linking of splenocytes, IL-17 and IFNγ ELISA; assay type: in vivo, mice
[2] = test system: bacterial groups associated with small intestine mucosa
MCA205 sarcomas = assay type: in vivo, C57BL/6 mice; conditions: mouse, in vivo
[3] = test system: lamina propria cells of the small intestine; conditions: 7 days post-CTX
[4] = test system: CBir1 TCR Tg CD4+ T cells; conditions: mouse, in vivo
Experimental: CD4^+ T cells were isolated from B6.CBir1 TCR Tg mice using anti-mouse CD4 magnetic beads. Briefly, splenic cells were washed twice and incubated with anti-CD4 magnetic beads at 4° C. for 30 min and then separated by magnetic field. When checked by flow cytometry, over 95% of the cells were CD4^+ T cells. One million CBir1 Tg T cells (CD45.1^+) were adoptively transferred i.v. into CTX or NaCl treated-naïve congenic (CD45.2^+) mice two days after chemotherapy and spleens were harvested at day 5-7 post-transfer for flow cytometry analyses and ex vivo splenocyte restimulations. Flow cytometry analyses gated on CD45.1^+ cells to appreciate percentages of intracellular IL-17^+ or IFNg^+ cells after PMA/ionomycin 5 h restimulation in the presence of monensin.

memory CD4+ T cells = conditions: 11 patients, after metronomic CTX
Experimental: Ex vivo restimulation assays using patients' autologous monocytes loaded with defined bacteria for 3 hours, neutralized with antibiotics, then cultured in GM-CSF+IL-4 (to differentiate into DC) and incubated for 3 days with CD4^+CD45RO^+ T cells (at a 1:2 ratio) purified from autologous blood at various time points (Day 0: before CTX, Day 12-46: after CTX, NSCLC: non small cell lung cancer). A. Cytokine release (IFNγ, TNF, IL-10) was monitored using ELISA. […] C. […] B-D show the cytokine levels in the 40 h supernatants of 250.000 memory CD4^+ T cells for each individual patient pre- and post-CTX administration.
The responses that were monitored included those against enterococci (E. hirae and E. faecalis, both immunogenic in mice receiving CTX), lactobacilli (L. johnsonii and the less relevant L. plantarum), as well as against E. coli.

[5] = test system: Lysozyme M and RegIIIγ transcription; conditions: duodenum, 18 hours post-CTX
Experimental: Lamina propria cells were isolated from duodenum, ileum and colon 18 h post CTX, and total RNA extraction and genomic DNA removal were performed with the RNeasy Mini Kit (Qiagen, Hilden, Germany), following the manufacturer's instructions. Total RNA extraction and genomic DNA removal of ilea or duodena were performed with the RNeasy Mini Kit (Qiagen, Hilden, Germany), following the manufacturer's instructions. Total RNA was then reverse transcribed into cDNA with the SuperScript III Reverse Transcriptase and the RNaseOUT™ Recombinant Ribonuclease Inhibitor (Life Technologies, Saint Aubin, France), in the presence of random primers (Promega, Charbonnieres, France) and the Deoxynucleoside Triphosphate Set, PCR grade (Roche Diagnostics, Meylan, France). Expression of RegIIIγ (Mm00441127_m1) and LysM (Mm01612741_m1)-related genes was analyzed with TaqMan® Gene Expression Assays using the Universal Master Mix II on a StepOnePlus™ Real-Time PCR System (Life Technologies, France). Quantitative RT-PCR data were invariably normalized to the expression levels of the housekeeping gene peptidylprolyl isomerase A (Ppia) by means of the 2^−ΔCt method.

[6] = 18 h post CTX
Experimental: Gut barrier integrity was assessed by permeability to FITC-dextran (4 kDa, Sigma Aldrich). Fourteen hours after i.p. injection with NaCl or CTX at 100 or 200 mg/kg, mice were fasted for 4 hours and then orally fed with FITC-dextran at 0.6 mg/g body weight (80 mg/ml in NaCl, 18 h after NaCl/CTX treatment). After 3 to 4 h, the mice were euthanized and exsanguinated by cardiac puncture. Plasma FITC levels were subsequently determined using a fluorescence spectrophotometer (λex/λem=485/535 nm).

splenic pTh17 cells = assay: Flow cytometry of splenic pTh17 / TH1 / Tc1 cells
Experimental: For cross-linking experiment, 2×10^5 total splenocytes per well (after red cell lysis) were incubated in MaxiSorp plates (Nunc) precoated with anti-CD3ε mAb (145-2C11) (0.5 μg per well; eBioscience) and/or anti-CD28 mAb (37.51) (2 μg/ml; BD). The supernatants were assayed at 48 h by ELISA for mouse IL-17A (eBioscience) and IFNγ (BD). […] For intracellular, cells were incubated for 4 h at 37° C. with 50 ng/ml of PMA, 1 μg/ml of ionomycin and BD Golgi STOP™. After membrane staining, cells were stained with anti-IL-17A, IFNγ, T-bet and RORγt using eBioscience FoxP3/Transcription factor staining buffer set.

gut microbiota [7] = conditions: NOD1-/-xNOD2-/- naive mice, CTX compared with PBS, seven days
[8] = test system: small intestine mucosal microbiota; conditions: mouse, in vivo
[9] = test system: small intestine epithelium; conditions: mouse, in vivo
Experimental: The whole small intestine (duodenum, jejunum and ileum) was removed, cleaned from fecal content and fixed in 4% of PFA for 1 h. Re-hydration of the tissue was performed in 15% sucrose for 1 h and in 30% sucrose overnight. Depending on the experiment, the small intestine was entirely rolled, or cut into small pieces, then embedded in optimum cutting temperature (OCT) compound (Sakura), snap frozen and longitudinal or transversal […] were prepared.
For histological analyses, the longitudinal sections were counterstained with hematoxilin and eosin. For the histological quantitative analyses, inflammatory foci, altered villi and the thickness of lamina propria were scored for each section, while the number of goblet cells was counted for each villus. […] Then, a rabbit polyclonal antibody against the lysozyme protein (1:500 for 1 h, Thermo Scientific) and ALEXA FLUOR 488 Fragment of goat anti-rabbit IgG (1:300 for 1 h, Molecular Probes) were used. All steps were performed at room temperature. Lysozyme-positive areas were quantified on mosaic images using the Histolab software (Microvision Instruments). The quantification of Paneth cells was performed measuring the average area of the Lysozyme-positive clusters (group of Paneth cells) as well as the emission/μm^2 of those clusters (not shown).

For `O=C(O)c1cn(C2CC2)c2cc(N3CCNCC3)c(F)cc2c1=O` [cifloxacin], the “Bacteroidetes in gut microbiota” value (gut microbiota [1]) is listed as “marked suppression” and the “effect on the CTX-induced antitumor effects” value (tumor) is listed as “not efficient”.

In the case of `O=P1(N(CCCl)CCCl)NCCCO1` (centres unmarked) [CTX, cyclophosphamide], the “Lactobacillus johnsonii cultured from lymphoid organs” value (commensal bacteria; 48 h post therapy) is reported as over 40 % cases, the “mice with translocation of commensal bacteria into mesenteric lymph nodes and spleens” value (commensal bacteria; 48 h post-CTX) is reported as over 50 % mice and the “bacterial translocation (colonies from spleens, anaerobic conditions) in NOD1xNOD2-/-” value (commensal bacteria; 48 hrs post-CTX) is reported as “enhanced”. The “mice with Th1 memory responses against L. johnsonii” value (splenic CD4+ T cells) was 50 % of mice, the “polarization of splenic CD4+ T cells towards Th1 and Th17 pattern” value (splenocytes; day 7 after treatment) was “induced the polarization” and the “increase of ex vivo IL-17 release by TCR-stimulated splenocytes” value (splenocytes; germ-free (GF) mice) was “failed to do so”. The “ex vivo IL-17 release by TCR-stimulated splenocytes” value (splenocytes; specific pathogen-free (SPF) mice) was “increased”, the “relative amounts of SFB and TM7 or Clostridium group XIV” value ([2]; day 7 post-CTX (not shown)) was “No CTX-specific modulations” and the “abundance of lactobacilli and enterococci” value ([2]; small intestine mucosa, 7 days post-CTX) was “reduction”. For the same compound, the “bacterial counts of the Clostridium leptum” value ([2]; tumor bearers, 7 days post-CTX) was “not affected”, the “total bacterial load of the small intestine” value ([2]; tumor bearers, 7 days post-CTX) was “not affected” and the “antitumor effects against MCA205 sarcomas, GF versus SPF mice” value (MCA205 sarcomas) was “reduced in GF compared with SPF mice”. For the same compound, the “immune-dependent anti-sarcoma effects in NOD1-/-xNOD2-/- mice” value (MCA205 sarcomas) was “significantly enhanced”, the “immune-dependent anti-sarcoma effects in single knock out mice (NOD1 or NOD2 or RIP2 or CARD15) compared with WT” value (MCA205 sarcomas) was “not ameliorated” and the “frequencies of CD103+CD11b+ dendritic cells in lamina propria of the small intestine” value [3] was “significantly decreased”. For the same compound, the “frequencies of TCRαβ+CD3+ T cells expressing RORγt in lamina propria of the small intestine” value [3] was “significantly decreased”, the “immune responses against commensal bacteria (CBir1 Tg T cells)” value [4] was “induced TCR-restricted, antigen specific immune responses against commensal bacteria” and the “patients developing memory Th1 responses against E. coli” value (memory CD4+ T cells) was 18%. For the same compound, the “patients developing memory Th1 responses against L. johnsonii” value (memory CD4+ T cells) was 18%, the “patients developing memory Th1 responses against enterococci” value (memory CD4+ T cells) was 54% and the “patients mounting a cellular immune response against L. plantarum” value (memory CD4+ T cells) was 9%. For the same compound, the “expression of the antibacterial enzyme lysozyme” value [5] was “upregulated”, the “intestinal permeability (orally administered FITC-dextran detectable in blood)” value [6] was “increase” and the “frequency of pathogenic Th17 (pTh17) cells within the spleen” value (splenic pTh17 cells; 7 days after treatment) was “increased”. The “priming of splenic pTH17 cells in NOD2-/- mice” value (splenic pTh17 cells; following CTX administration) was “augmented”, the “Clostridiaceae in the small intestines” value (gut microbiota [7]) was “overrepresentation” and the “Erysipelotrichaceae in SI” value (gut microbiota [7]) was “relative loss”. The Lachnospiraceae in feces (gut microbiota [7]) was “relative loss”, the “Porphyromonadaceae (mainly Barnesiella) in the stool” value (gut microbiota [7]) was “overrepresentation” and the “bacterial species/groups from the Firmicutes phylum in mucosa” value [8] was “reduction”. The “dysbiosis at early time points” value [8] was “failed to cause a major dysbiosis”, the “microbial composition of small intestine and caecum” value [8] was “significantly altered the microbial composition of the small intestine (but not of the caecum)” and the “proportion of Spirochaetes phylum” value [8] was “reduction”. The “relative abundance of the Treponema genus” value [8] was 0%, the “relative abundance: Butyrate-producing bacterium M62/1 (AY305309)” value [8] was 0.07% and 0.06% and the “relative abundance: Butyrate-producing bacterium SM4/1 (AY305314)” value [8] was 0.21% and 0.20%. For the same compound, the “relative abundance: Clostridium sp ASF502 (AF157053)” value [8] was 0.01% and 0.00%, the “relative abundance: Clostridium sp. A9 (DQ789119)” value [8] was 0.23% and 0.27% and the “relative abundance: Clostridium sp. Clone-33 (AB622843)” value [8] was 0.02% and 0.00%. For the same compound, the “relative abundance: Clostridium sp. Clone-40 (AB622844)” value [8] was 0.05% and 0.02%, the “relative abundance: Clostridium sp. Clone-49 (AB622849)” value [8] was 0.07% and 0.09% and the “relative abundance: Clostridium sp. Culture-41 (AB622820)” value [8] was 0.10% and 0.08%. For the same compound, the “relative abundance: Clostridium sp. Culture-54 (AB622823)” value [8] was 0.03% and 0.04%, the “relative abundance: Coprococcus catus; L8 (AB361624)” value [8] was 0.03% and the “relative abundance: Lachnospiraceae bacterium 14-2 (DQ789124)” value [8] was 0.05% and 0.02%. The “relative abundance: Lactobacillus reuteri; LU3 (AY735406)” value [8] was 0.24% and 0.14%, the “relative abundance: Roseburia faecis (T); M7211 (AY305310)” value [8] was 0.35% and 0.41% and the “relative abundance: Roseburia intestinalis; XB6B4 (AM055815)” value [8] was 0.02% and 0.00%. For the same compound, the “relative abundance: Rumen bacterium NK4A66 (GU124467)” value [8] was 0.07% and 0.10%, the “relative abundance: Tannerella forsythia; OB071 (JN713185)” value [8] was 0.02% and the “inflammatory status of the gut epithelial barrier (histology)” value [9] was “shortening of small intestinal villi, discontinuities of the epithelial barrier, interstitial edema and focal accumulation of mononuclear cells in the lamina propria”.
